Source: patent US20240262807A1, “COMPOUND USED AS BCR-ABL INHIBITOR” (CHIA TAI TIANQING PHARMACEUTICAL GROUP CO., LTD., priority 2021, published 2024)

What was measured:
Format in all cases: cell-based
[1] = target: T1, Ba/F3-BCR-ABL1-T315I-C3 cells (Homo sapiens, UniProt P00519, T315I, cells depend on it); assay: Inhibitory effect of compounds on proliferation of BCR-ABL T315I-transfected Ba/F3 cells (CCK-8); conditions: 72 h with compound, CCK-8, 5% serum, read-out: IC50 (nM) Ba/F3-BCR-ABL1 T315I
T1 construct: fused on or other part: P11274 (Breakpoint cluster region protein)
Experimental: Ba/F3-BCR-ABL1-T315I-C3 cells in logarithmic growth phase and good cell condition were added to a centrifuge tube and centrifuged at 1000 rpm for 5 min in a low speed centrifuge. The supernatant was discarded, and 5 mL of complete medium (RPMI 1640 basic medium+10% FBS) was added using a pipette for cell resuspension. The cells were counted using a cell counter, diluted with complete medium to a cell density of 6×10^4 cells/mL, and an equivalent amount of RPMI 1640 basic medium was added to adjust the serum concentration to 5% and the cell density to 3×10^4 cells/mL for plate seeding. The cells were seeded on a 96-well plate at 100 μL/well using a multi-channel pipette and cultured in a cell incubator at 37° C. 5% CO2 and saturated humidity. After 24 h incubation, compounds were loaded using a nanoliter pipettor, 8 concentrations (1000 nM, 250 nM, 63 nM, 16 nM, 3.9 nM, 0.98 nM, 0.24 nM, 0.061 nM) were set for each compound, and 2 replicate wells were set for each concentration; cells with no compounds added were taken as a negative control, and a plating medium with no cells added was taken as a blank control. After 72 h. […] Inhibition rate (%)=(mean value of negative control group−mean value of experimental group)/(mean value of negative control group−mean value of blank group)×100%. A dose-response curve was fitted by four-parameter analysis, with the logarithm of compound concentration serving as abscissa and inhibition rate serving as ordinate, such that ICso was calculated.

K562 cells = assay: Inhibitory effect of compounds on proliferation of K562 cells (CCK-8); conditions: Homo sapiens, 72 h with compound, CCK-8, 5% serum
Experimental: K562 cells in logarithmic growth phase and good cell condition were added to a centrifuge tube and centrifuged at 1000 rpm for 5 min in a low speed centrifuge. […] The cells were seeded on a 96-well plate at 100 µL/well using a multi-channel pipette and cultured in a cell incubator at 37° ° C. 5% CO2 and saturated humidity. […] Inhibition rate (%)=(mean value of negative control group−mean value of experimental group)/(mean value of negative control group−mean value of blank group)×100%. A dose-response curve was fitted by four-parameter analysis, with the logarithm of compound concentration serving as abscissa and inhibition rate serving as ordinate, such that IC50 was calculated.

hERG potassium channel = target: T2, hERG potassium channel (Homo sapiens, UniProt Q12809); assay: Evaluation of cardiac safety: hERG potassium channel whole-cell patch clamp in HEK-293 cells; conditions: HEK-293 cells over-expressing hERG potassium channel, tail current, room temperature
T2 construct: expressed in transfected cells; host or cells: HEK-293 cells, stably transformed
Experimental: The cell strains were derived from HEK-293 cells over-expressing hERG potassium channel. The cells were cultured in an incubator at 37° C. 5% CO2. […]
The stably-transformed cells were seeded onto a slide at a cell density of less than 50% and cultured overnight. […] Membrane currents were recorded by using a HEKA EPC-10 patch clamp amplifier and PATCHMASTER acquisition system (HEKA Instruments Inc., D-67466 Lambrecht. Pfalz. Germany) and analyzed and counted by using Origin 8.5 (OriginLab Corporation. Northampton. MA) software and Microsoft Excel (results in Table 4). […]
Channel currents were recorded in the experiments using a whole-cell recording mode. An extracellular fluid (approximately 2 mL per min) was firstly perfused, the process was continuously recorded, and the current was waited for stabilization (current decay (Run-Down) was less than 5% in 5 min); at this point, the tail current peak value was the control current value. Then, the extracellular fluid containing the test drug was perfused, and the process was continuously recorded until the inhibitory effect of the drug on the hERG current reached a stable state; at this point, the tail current peak value was the current value after dosing. […]

T2 sequence (Q12809 whole entry): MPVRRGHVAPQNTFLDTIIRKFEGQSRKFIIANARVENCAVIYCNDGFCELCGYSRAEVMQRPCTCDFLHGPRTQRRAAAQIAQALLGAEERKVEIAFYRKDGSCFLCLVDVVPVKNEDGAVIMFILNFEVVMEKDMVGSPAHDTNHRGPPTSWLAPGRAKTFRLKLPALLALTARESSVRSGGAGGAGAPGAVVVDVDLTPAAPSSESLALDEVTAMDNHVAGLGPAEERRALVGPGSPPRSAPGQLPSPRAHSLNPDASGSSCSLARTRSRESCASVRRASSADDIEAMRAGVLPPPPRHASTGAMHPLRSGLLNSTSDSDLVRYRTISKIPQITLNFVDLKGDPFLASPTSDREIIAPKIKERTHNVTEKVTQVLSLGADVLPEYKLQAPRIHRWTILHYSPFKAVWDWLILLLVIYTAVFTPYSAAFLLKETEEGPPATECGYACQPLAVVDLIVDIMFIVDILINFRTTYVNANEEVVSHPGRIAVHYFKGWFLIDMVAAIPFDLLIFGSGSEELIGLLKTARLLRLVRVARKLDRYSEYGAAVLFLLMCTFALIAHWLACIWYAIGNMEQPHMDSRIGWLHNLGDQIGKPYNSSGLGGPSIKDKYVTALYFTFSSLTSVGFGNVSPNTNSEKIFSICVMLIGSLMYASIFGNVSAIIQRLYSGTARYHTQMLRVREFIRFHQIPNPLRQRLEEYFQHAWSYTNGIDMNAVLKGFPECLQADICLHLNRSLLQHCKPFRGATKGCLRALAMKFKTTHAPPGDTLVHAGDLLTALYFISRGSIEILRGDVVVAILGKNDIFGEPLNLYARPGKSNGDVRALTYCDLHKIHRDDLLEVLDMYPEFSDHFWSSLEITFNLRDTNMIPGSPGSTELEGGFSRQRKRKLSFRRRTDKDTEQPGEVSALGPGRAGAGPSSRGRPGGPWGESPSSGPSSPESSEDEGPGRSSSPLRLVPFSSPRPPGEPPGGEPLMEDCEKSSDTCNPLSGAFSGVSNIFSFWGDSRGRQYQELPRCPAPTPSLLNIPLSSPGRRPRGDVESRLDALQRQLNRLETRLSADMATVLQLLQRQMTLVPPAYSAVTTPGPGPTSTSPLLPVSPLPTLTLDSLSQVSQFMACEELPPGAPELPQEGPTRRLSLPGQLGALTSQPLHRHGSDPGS

SMILES | GI50 [1] [nM] | IC50 (K562 cells) [nM] | IC50 (hERG potassium channel) [µM]
O=C(Nc1ccc(OC(F)(F)Cl)cc1)c1cnc(N2CC[C@@H](O)C2)c(-c2cc3c([nH]2)C(=O)NC3)c1 [Compound 106] | 0.54 | 1.1 | > 30
O=C(Nc1ccc(OC(F)(F)Cl)cc1)c1cnc(N2CC(O)C2)c(-c2cc3c([nH]2)C(=O)NC3)c1 [Compound 104] | 0.86 | 1.2 | > 30
